This data set in a line: recombinant barcode read abundance after kanamycin selection (control-corrected) (log10(CPM+1)); higher = more efficient recombination; sequences stand for … in AGTGCAGAGAAAATCGGCCAGTTTTCTCTGCCTGCAGTCCGCATGCCGT…AGATTTATGCAGCGGACTGCCTTTCTCCCAAAGTGATAAACCGGACAGTATCATGGACCGGTTTTCCCGGTAATCCGTATTTGCAAGGTTGGTTTCACT; site = the 11-nt target. The method, boiled down: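 Targets and IS621 bridge RNA target-binding loops were paired in oligos, each with a promoter, a barcode and the J23119-driven first 104 bridge RNA bases. A vector carrying the remaining 73 bp and a T7-inducible recombinase received these by Gibson cloning, and the pool was co-electroporated into E. coli with a donor plasmid. Duplicate plates contained chloramphenicol/ampicillin LB agar (control) or chloramphenicol/ampicillin/kanamycin with 0.1 mM IPTG. Recombination efficiency comes from averaged, control-corrected counts per million of recombinant-junction barcodes, reported as log10(CPM+1).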
As for “GTGTGAACTTGGGTTCTAACCTGTTGCCG (site GAGTTAACTCG)”, the “recombinant barcode read abundance (log10)” value is 0.0504.
In the case of “GTGTGAACTTGGGTTCTAACCTGTTGCCG (site GTGTGAACTCG)” it was 0.992.
Regarding “GTGTTTGCTTGGGTTCTAACCTGTTGCCT (site GAGTTTGCTAG)”, the “recombinant barcode read abundance (log10)” value is 0.0456.
“GTGTTTGCTTGGGTTCTAACCTGTTGCCT (site GCGTTTGCTAG)”: the “recombinant barcode read abundance (log10)” value was found to be 0.0586.
In the case of “GTGTTTGCTTGGGTTCTAACCTGTTGCCT (site GGGTTTGCTAG)” it was 0.0616; in that of “GTGTTTGCTTGGGTTCTAACCTGTTGCCT (site GTGTTTGCTAG)”, 0.596; in that of “GTTAGAACTTGGGTTCTAACCTGTTGCTT (site CCATTGTCTCG)”, 0.0117.
In the case of “GTTAGAACTTGGGTTCTAACCTGTTGCTT (site GTTAGAACTAA)” it was 0.123.
The value for “GTTCAAACTTGGGTTCTAACCTGTTGCAT (site ATTCAAACTAG)” was 0.245.
On to “GTTCAAACTTGGGTTCTAACCTGTTGCAT (site GTTCAAACTAT)”, for which the “recombinant barcode read abundance (log10)” value is 1.2.
“GTTCAGACTTGGGTTCTAACCTGTTGCCT (site GTACAGACTAG)”: the “recombinant barcode read abundance (log10)” value was 1.15.
The value for “GTTCAGACTTGGGTTCTAACCTGTTGCCT (site GTCCAGACTAG)” was 0.948.
In the case of “GTTCAGACTTGGGTTCTAACCTGTTGCCT (site GTGCAGACTAG)” it was 0.0632.
In the case of “GTTCAGACTTGGGTTCTAACCTGTTGCCT (site GTTCAGACTAG)” it was 1.58.
Take “GTTCCCTCTTGGGTTCTAACCTGTTGCTT (site GCTCACTCTAA)”: the “recombinant barcode read abundance (log10)” value was 0.245.
In the case of “GTTCCCTCTTGGGTTCTAACCTGTTGCTT (site GTTCCCTCTAA)”, the “recombinant barcode read abundance (log10)” value was determined as 1.9.
In the case of “GTTCGGACTTGGGTTCTAACCTGTTGCGG (site GATCGGACTCC)” it was 0.634; in that of “GTTCGGACTTGGGTTCTAACCTGTTGCGG (site GTTCGGACTCC)”, 2.69.
In the case of “GTTGCGGCTTGGGTTCTAACCTGTTGCCT (site GTTACGGCTAG)” it was 0.44.
In the case of “GTTGCGGCTTGGGTTCTAACCTGTTGCCT (site GTTCCGGCTAG)” it was 0.0471.
For “GTTGCGGCTTGGGTTCTAACCTGTTGCCT (site GTTGCGGCTAG)”, the “recombinant barcode read abundance (log10)” value was 0.898.
Take “GTTGCGGCTTGGGTTCTAACCTGTTGCCT (site GTTTCGGCTAG)”: the “recombinant barcode read abundance (log10)” value was 0.34.
For the sequence “GTTGGAGCTTGGGTTCTAACCTGTTGCAG (site GTTGGAGCTCT)”, the “recombinant barcode read abundance (log10)” value amounted to 2.24.
The value for “GTTGGAGCTTGGGTTCTAACCTGTTGCAG (site TATGGAGCTCT)” was 0.146; that for “GTTGGAGCTTGGGTTCTAACCTGTTGCCT (site GTTAGAGCTAG)” was 1.97; that for “GTTGGAGCTTGGGTTCTAACCTGTTGCCT (site GTTCGAGCTAG)” was 0.487.
On to “GTTGGAGCTTGGGTTCTAACCTGTTGCCT (site GTTGGAGCTAG)”, for which the “recombinant barcode read abundance (log10)” value stood at 2.35.
The value for “GTTGGAGCTTGGGTTCTAACCTGTTGCCT (site GTTTGAGCTAG)” was 0.304.
The value for “GTTTAGTCTTGGGTTCTAACCTGTTGCCT (site GTTTAATCTAG)” was 0.159; that for “GTTTAGTCTTGGGTTCTAACCTGTTGCCT (site GTTTAGTCTAG)” was 1.01; that for “GTTTATACTTGGGTTCTAACCTGTTGCGT (site GATGATACTAC)” was 0.0203.
In the case of “GTTTATACTTGGGTTCTAACCTGTTGCGT (site GTTTATACTAC)” it was 0.749; in that of “GTTTCAACTTGGGTTCTAACCTGTTGCCA (site CAACACCCTAT)”, 0.0582; in that of “GTTTCAACTTGGGTTCTAACCTGTTGCCA (site GTTTCAACTTG)”, 0.061.
As to “GTTTCAACTTGGGTTCTAACCTGTTGCGT (site AAGAACTCTCG)”, the “recombinant barcode read abundance (log10)” value was 0.18.
In the case of “GTTTCAACTTGGGTTCTAACCTGTTGCGT (site GTTTCAACTAC)” it was 0.729; in that of “GTTTCCTCTTGGGTTCTAACCTGTTGCCG (site GGATCCTCTCG)”, 0.251; in that of “GTTTCCTCTTGGGTTCTAACCTGTTGCCG (site GTTTCCTCTCG)”, 0.78.
As for “GTTTGACCTTGGGTTCTAACCTGTTGCTT (site GTTTGACCTAA)”, the “recombinant barcode read abundance (log10)” value is 0.532.
The value for “GTTTGACCTTGGGTTCTAACCTGTTGCTT (site GTTTGCCCTAA)” was 0.229.
The value for “GTTTGACCTTGGGTTCTAACCTGTTGCTT (site GTTTGGCCTAA)” was 0.171.
For the sequence “GTTTGACCTTGGGTTCTAACCTGTTGCTT (site GTTTGTCCTAA)”, the “recombinant barcode read abundance (log10)” value turned out to be 0.0874.
The value for “GTTTGGACTTGGGTTCTAACCTGTTGCTA (site GTTTGGACTCA)” was 0.178.
The value for “GTTTGGACTTGGGTTCTAACCTGTTGCTA (site GTTTGGACTTA)” was 0.904; that for “GTTTGGTCTTGGGTTCTAACCTGTTGCCT (site GTTTGATCTAG)” was 0.285; that for “GTTTGGTCTTGGGTTCTAACCTGTTGCCT (site GTTTGCTCTAG)” was 0.0727.
The value for “GTTTGGTCTTGGGTTCTAACCTGTTGCCT (site GTTTGGTCTAG)” was 0.405; that for “GTTTGGTCTTGGGTTCTAACCTGTTGCCT (site GTTTGTTCTAG)” was 0.0972; that for “GTTTGTTCTTGGGTTCTAACCTGTTGCCT (site GTTTGATCTAG)” was 0.0239.
Take “GTTTGTTCTTGGGTTCTAACCTGTTGCCT (site GTTTGCTCTAG)”: the “recombinant barcode read abundance (log10)” value was 0.0623.
In the case of “GTTTGTTCTTGGGTTCTAACCTGTTGCCT (site GTTTGGTCTAG)” it was 0.237.
In the case of “GTTTGTTCTTGGGTTCTAACCTGTTGCCT (site GTTTGTTCTAG)”, the “recombinant barcode read abundance (log10)” value worked out at 0.254.
In the case of “TAAACAGCTTGGGTTCTAACCTGTTGCCT (site TAAACAGCTAG)” it was 0.0976.
The value for “TAAACAGCTTGGGTTCTAACCTGTTGCCT (site TACACAGCTAG)” was 0.00929; that for “TAAACAGCTTGGGTTCTAACCTGTTGCCT (site TAGACAGCTAG)” was 0.171; that for “TAAACAGCTTGGGTTCTAACCTGTTGCCT (site TATACAGCTAG)” was 0.0779.
In the case of “TAAAGAGCTTGGGTTCTAACCTGTTGCGG (site TAAAGAGCTCC)” it was 1.57; in that of “TAAAGAGCTTGGGTTCTAACCTGTTGCGG (site TACAGAGCTCC)”, 0.153; in that of “TAAAGAGCTTGGGTTCTAACCTGTTGCGG (site TAGAGAGCTCC)”, 0.109.

The values are drawn from the supplement of paper PMC11208160.
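Further: IS621 recombinase and bridge RNA in Escherichia coli cells.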
